Earlier results as cited in paper PMC5074076, “Novel minimal physiologically-based model for the prediction of passive tubular reabsorption and renal excretion clearance” (European Journal of Pharmaceutical Sciences, 2016).

Conditions: healthy subjects; plasma and urine data from same subjects; normalised for subject weight and body surface area where necessary; ref Table S2.1; cited from earlier work

| SMILES | Overall weighted mean CLR [mL/min] |
| --- | --- |
| NC12CC3CC(CC(C3)C1)C2 [Amantadine] | 219.2 |
| COc1ccc2c3c1O[C@H]1C[C@@H](O)C=C[C@@]31CCN(C)C2 [Galantamine] | 57.7 |
| CSc1ccc(C(=O)c2[nH]c(=O)[nH]c2C)cc1 [Enoximone] | 3.4 |
| CN[C@@H]1CCc2[nH]c3ccc(C(N)=O)cc3c2C1 [Frovatriptan] | 73.5 |
| CCN(CC)CCNC(=O)c1ccc(NS(C)(=O)=O)cc1 [Sematilide] | 262.0 |
| CC(C)(C)NCC(O)c1ccc(O)c(CO)c1 (stereo not shown) [Salbutamol] | 289.9 |
| CCn1cc(C(=O)O)c(=O)c2cc(F)c(N3CCNC(C)C3)c(F)c21 (stereo not shown) [Lomefloxacin] | 155.8 |
| CCCn1c(=O)[nH]c(=O)c2[nH]cnc21 [Enprofylline] | 272.6 |
| Cc1cn([C@H]2C[C@H](N=[N+]=[N-])[C@@H](CO)O2)c(=O)[nH]c1=O [Zidovudine] | 258.1 |
| COc1c(N2CCNC(C)C2)c(F)cc2c(=O)c(C(=O)O)cn(C3CC3)c12 (stereo not shown) [Gatifloxacin] | 168.4 |
| CO/N=C(\C(=O)N[C@@H]1C(=O)N2C(C(=O)O)=C(CSc3nc(C)c(CC(=O)O)s3)CS[C@H]12)c1csc(N)n1 [Cefodizime] | 29.1 |
| CO[C@@]1(NC(=O)C(C(=O)O)c2ccc(O)cc2)C(=O)N2C(C(=O)O)=C(CSc3nnnn3C)CO[C@@H]21 (stereo partly shown) [Moxalactam] | 69.5 |
| CCn1cc(C(=O)O)c(=O)c2cc(F)c(N3CCNCC3)nc21 [Enoxacin] | 256.7 |
| CCCc1nc(C(C)(C)O)c(C(=O)O)n1Cc1ccc(-c2ccccc2-c2nnn[nH]2)cc1 [Olmesartan] | 11.4 |
| CNC(C)Cc1ccc2c(c1)OCO2 (stereo not shown) [MDMA] | 215.0 |
| CN1CCN(c2c(F)cc3c(=O)c(C(=O)O)cn4c3c2SCC4)CC1 [Rufloxacin] | 16.8 |
| CNCCCN1c2ccccc2CCc2ccccc21 [Desipramine] | 28.6 |
| CO[C@@]1(NC(=O)C2SC(=C(C(N)=O)C(=O)O)S2)C(=O)N2C(C(=O)O)=C(CSc3nnnn3C)CS[C@@H]21 (stereo partly shown) [Cefotetan] | 23.9 |
| CC12CC3CC(C)(C1)CC(N)(C3)C2 [Memantine] | 117.1 |
| CC(C)(C)NC[C@H](O)COc1nsnc1N1CCOCC1 [Timolol] | 125.1 |
| Cc1cccc(C)c1NC(=O)CC12CCCN1CCC2 [Pilsicainide] | 234.7 |
| N[C@@H](CC(=O)N1CCn2c(nnc2C(F)(F)F)C1)Cc1cc(F)c(F)cc1F [Sitagliptin] | 371.2 |
| Nc1ncnc2c1ncn2CCOCP(=O)(O)O [Adefovir] | 200.4 |
| O=C1Nc2ccc(Cl)cc2C(c2ccccc2Cl)=NC1O (stereo not shown) [Lorazepam] | 0.3 |
| C[C@@H](CN1CC(=O)NC(=O)C1)N1CC(=O)NC(=O)C1 [Dexrazoxane] | 133.3 |

| SMILES | Overall weighted mean CLR [mL/min] |
| --- | --- |
| CC(C)(O/N=C(\C(=O)N[C@@H]1C(=O)N2C(C(=O)[O-])=C(C[n+]3ccccc3)CS[C@H]12)c1csc(N)n1)C(=O)O [Ceftazidime] | 98.0 |
| CCS(=O)(=O)CCn1c([N+](=O)[O-])cnc1C [Tinidazole] | 11.3 |
| CC1(C)S[C@@H]2[C@H](NC(=O)[C@H](NC(=O)N3CCNC3=O)c3ccccc3)C(=O)N2[C@H]1C(=O)O [Azlocillin] | 83.3 |
| CO/N=C1\CN(c2nc3c(cc2F)c(=O)c(C(=O)O)cn3C2CC2)CC1CN (stereo not shown) [Gemifloxacin] | 176.8 |
| C[C@H]1COc2c(N3CCN(C)CC3)c(F)cc3c(=O)c(C(=O)O)cn1c23 [Levofloxacin] | 116.9 |
| Cn1nnnc1SCC1=C(C(=O)O)N2C(=O)[C@@H](NC(=O)[C@H](O)c3ccccc3)[C@H]2SC1 [Cefamandole] | 162.3 |
| CCN(CC)CCCC(C)Nc1ccnc2cc(Cl)ccc12 (stereo not shown) [Chloroquine] | 167.2 |
| Nc1cccc2c1CN(C1CCC(=O)NC1=O)C2=O (stereo not shown) [Lenalidomide] | 190.4 |
| Nc1nc2c(ncn2CCC(CO)CO)c(=O)[nH]1 [Penciclovir] | 439.6 |
| c1cnc2cc3c(cc2n1)[C@@H]1CNC[C@H]3C1 [Varenicline] | 118.6 |
| CN/C(=N/CCSCc1nc[nH]c1C)NC#N [Cimetidine] | 417.0 |
| CO[C@H]1/C=C/O[C@@]2(C)Oc3c(C)c(O)c4c(O)c(c(/C=N/N5CCN(C)CC5)c(O)c4c3C2=O)NC(=O)/C(C)=C\C=C\[C@H](C)[C@H](O)[C@@H](C)[C@@H](O)[C@@H](C)[C@H](OC(C)=O)[C@@H]1C [Rifampin] | 18.7 |
| CC1CN(c2cc3c(cc2F)c(=O)c(C(=O)O)cn3-c2ccc(F)cc2F)CCN1 (stereo not shown) [Temafloxacin] | 122.5 |
| COc1cc2ncnc(Nc3ccc(F)c(Cl)c3)c2cc1OCCCN1CCOCC1 [Gefitinib] | 8.6 |
| NCc1ccccc1CC(=O)N[C@@H]1C(=O)N2C(C(=O)O)=C(CSc3nnnn3CC(=O)O)CS[C@H]12 [Ceforanide] | 46.8 |
| CCN1CCC[C@H]1CNC(=O)c1c(OC)ccc(Br)c1OC [Remoxipride] | 35.6 |
| COc1ccc([C@@H]2Sc3ccccc3N(CCN(C)C)C(=O)[C@@H]2OC(C)=O)cc1 [Diltiazem] | 48.0 |
| CO/N=C(\C(=O)N[C@@H]1C(=O)N2C(C(=O)O)=CCS[C@H]12)c1csc(N)n1 [Ceftizoxime] | 102.2 |
| CC(CC(c1ccccc1)c1ccccc1)NC(C)(C)C (stereo not shown) [Terodiline] | 11.1 |
| CCCC(=O)Nc1ccc(OCC(O)CNC(C)C)c(C(C)=O)c1 (stereo not shown) [Acebutolol] | 222.8 |
| CO[C@H]1/C=C/O[C@@]2(C)Oc3c(C)c(O)c4c(c3C2=O)C2=NC3(CCN(CC(C)C)CC3)NC2=C(NC(=O)/C(C)=C\C=C\[C@H](C)[C@H](O)[C@@H](C)[C@@H](O)[C@@H](C)[C@H](OC(C)=O)[C@@H]1C)C4=O [Rifabutin] | 58.4 |
| CN1CCN(c2c(F)cc3c(=O)c(C(=O)O)cn(CCF)c3c2F)CC1 [Fleroxacin] | 67.5 |
| CCCCC(=O)N(Cc1ccc(-c2ccccc2-c2nnn[nH]2)cc1)[C@H](C(=O)O)C(C)C [Valsartan] | 11.2 |
| CN1CCN(C(=O)OC2c3nccnc3C(=O)N2c2ccc(Cl)cn2)CC1 (stereo not shown) [Zopiclone] | 13.0 |
| COc1cc(Cc2cnc(N)nc2N)cc(OC)c1OC [Trimethoprim] | 78.2 |

| SMILES | Overall weighted mean CLR [mL/min] |
| --- | --- |
| O=C(O)C1=C(CSc2nnnn2CS(=O)(=O)O)CS[C@@H]2[C@H](NC(=O)[C@H](O)c3ccccc3)C(=O)N12 [Cefonicid] | 18.3 |
| NC1CCN(c2c(F)cc3c(=O)c(C(=O)O)cn(C4CC4)c3c2Cl)C1 (stereo not shown) [Clinafloxacin] | 191.0 |
| CN(C)CCc1c[nH]c2ccc(CS(=O)(=O)N3CCCC3)cc12 [Almotriptan] | 399.5 |
| CC1(C)S[C@@H]2[C@H](NC(=O)Cc3ccccc3)C(=O)N2[C@H]1C(=O)O [Benzylpenicillin] | 316.8 |
| CC(C)NCC(O)COc1cccc2[nH]ccc12 (stereo not shown) [Pindolol] | 210.9 |
| CC(=O)N[C@H]1[C@H]([C@H](O)[C@H](O)CO)OC(C(=O)O)=C[C@@H]1N=C(N)N [Zanamivir] | 89.1 |
| NS(=O)(=O)c1cc(C2(O)NC(=O)c3ccccc32)ccc1Cl (stereo not shown) [Chlorthalidone] | 62.3 |
| CC1COc2c(N3CCN(C)CC3)c(F)cc3c(=O)c(C(=O)O)cn1c23 (stereo not shown) [Ofloxacin] | 184.4 |
| CC1(C)S[C@@H]2[C@H](NC(=O)C(C(=O)O)c3ccccc3)C(=O)N2[C@H]1C(=O)O (stereo partly shown) [Carbenicillin] | 127.0 |
| CC(CN1c2ccccc2Sc2ccccc21)N(C)C (stereo not shown) [Promethazine] | 5.9 |
| C[C@H]1NCc2cc(-c3ccc4c(=O)c(C(=O)O)cn(C5CC5)c4c3OC(F)F)ccc21 [Garenoxacin] | 41.8 |
| C[C@@H](O)[C@H]1C(=O)N2C(C(=O)O)=C(S[C@H]3C[C@@H](C(=O)N4CC[C@H](NC(=O)CNC(=N)N)C4)N(C)C3)[C@H](C)[C@H]12 [Tomopenem] | 77.7 |
| CC1(C)S[C@@H]2[C@H](NC(=O)[C@H](NC(=O)c3cnc4cccnc4c3O)c3ccccc3)C(=O)N2[C@H]1C(=O)O [Apalcillin] | 29.0 |
| CO/N=C(\C(=O)N[C@@H]1C(=O)N2C(C(=O)O)=C(COC(C)=O)CS[C@H]12)c1csc(N)n1 [Cefotaxime] | 119.7 |
| Nc1nnc(-c2cccc(Cl)c2Cl)c(N)n1 [Lamotrigine] | 2.5 |
| CO/N=C(\C(=O)N[C@@H]1C(=O)N2C(C(=O)[O-])=C(C[n+]3cccc4c3CCC4)CS[C@H]12)c1csc(N)n1 [Cefpirome] | 97.5 |
| CN(C)CCn1nnnc1SCC1=C(C(=O)O)N2C(=O)[C@@H](NC(=O)Cc3csc(N)n3)[C@H]2SC1 [Cefotiam] | 193.7 |
| CC(C)NCC(O)COc1ccc(COCCOC(C)C)cc1 (stereo not shown) [Bisoprolol] | 157.0 |
| CCOc1ccc2ccccc2c1C(=O)N[C@@H]1C(=O)N2[C@@H]1SC(C)(C)[C@@H]2C(=O)O [Nafcillin] | 138.4 |
| CCCC(CCC)C(=O)O [Valproic Acid] | 0.2 |
| O=S(=O)(O)CCS [Mesna] | 265.8 |
| Clc1ccc2nsnc2c1NC1=NCCN1 [Tizanidine] | 66.2 |
| C=CC1=C(C(=O)O)N2C(=O)[C@@H](NC(=O)/C(=N\OCC(=O)O)c3csc(N)n3)[C@H]2SC1 [Cefixime] | 32.5 |
